Reference: patent publication US20230095021A1, “MODULATORS OF TDP-43” (Alteron Therapeutics, Inc., priority 2019, published 2023)

How the values were obtained:
TDP43-His = target: T1, TDP43-His (Homo sapiens, UniProt Q13148); test: Expression of histidine-tagged TDP-43 in E. coli whole cell lysates; type: cell-based; conditions: 60 μM ALT-59 with 2 μg/ml PMBN, 0.5 mM IPTG, Rosetta (DE3) cells, Coomassie stain
T1 construct: made in house; host or cells: E. coli Rosetta (DE3), vector pRETb/TDP43-His; protein not purified, read in whole cell lysate
T1 sequence (Q13148 whole entry): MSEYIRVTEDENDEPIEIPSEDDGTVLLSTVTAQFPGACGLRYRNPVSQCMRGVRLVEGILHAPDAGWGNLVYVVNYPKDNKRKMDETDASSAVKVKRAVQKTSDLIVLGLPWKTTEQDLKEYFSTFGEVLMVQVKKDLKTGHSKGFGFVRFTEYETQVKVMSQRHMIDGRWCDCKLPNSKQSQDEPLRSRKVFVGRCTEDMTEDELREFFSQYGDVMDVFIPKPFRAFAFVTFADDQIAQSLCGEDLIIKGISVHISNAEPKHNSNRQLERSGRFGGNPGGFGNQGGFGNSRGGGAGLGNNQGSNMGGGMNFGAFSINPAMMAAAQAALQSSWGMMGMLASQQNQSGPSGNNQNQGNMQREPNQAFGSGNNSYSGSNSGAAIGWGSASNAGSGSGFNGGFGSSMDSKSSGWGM
Protocol: Rosetta (DE3) cells were transformed with pRETb/TDP43-His according manufacture's instruction. After the culture from a single colony reached O.D 0.6 with shaking at 37° C. for 5 hours, it was split into six equal cultures and treated as indicated in FIG. 3. (Lane 1) un-induced blank; (Lane 2) 0.5 mM IPTG, 60 μM DMSO; (Lane 3) 0.5 mM IPTG, 60 μM ALT-59; (Lane 4) 0.5 mM IPTG, 2 μg/ml PMBN; (Lane 5) 0.5 mM IPTG, 2 μg/ml PMBN, 30 μM ALT-59; (Lane 6) 0.5 mM IPTG, 2 μg/ml PMBN, 60 μM ALT-59. Cells were cultured overnight at 25° C. on a shaker and then collected, sonicated in protein sample buffer and boiled before loading on a 10% SDS-PAGE gel. Protein were visualized by Coomassie Brilliant Blue stain.

LAMP2 pre-mRNA = LAMP2 pre-mRNA alternative splicing, RT-PCR; type: cell-based; conditions: MDA-MB-231 cells, 6 μM ALT-59
Protocol: (§1) Long stretches of TG repeats are found in exon 9 and intron 9 of Lamp2 gene. A shorter stretch is located in intron 10. […] RT-PCR analysis was performed to test if ALT-59 treatment affects LAMP2 alternative splicing. MDA-MB-231 cells were cultured as described above and treated with DMSO or 6 μM ALT-59. Total RNA was extracted using the RNeasy Mini Kit (Qiagen) and equal amount of RNA was reverse transcribed using the SuperScript III First-Strand Synthesis System (Invitrogen). PCR reactions were performed using forward primer located on exon 1 and a reverse primer located on exon 11. PCR samples were resolved in a 1.2% agarose gel and stained with ethidium bromide.

CFTR exon 9 = CFTR exon 9 splicing, RT-PCR; type: cell-based; conditions: MDA-MB-231 cells
Protocol: as §1
(§2) It has been reported that TDP-43 causes CFTR exon 9 skipping, ApoA2 exon 3 skipping, and POLDIP3 exon 3 inclusion. Additional experiments were performed to further confirm that TDP-43 is the target of ALT-59. RT-PCR analysis was performed as described above using the following primers for the three genes. PCR samples were analyzed by polyacrylamide gel electrophoresis and stained with ethidium bromide.

ApoA2 pre-mRNA = ApoA2 pre-mRNA splicing, RT-PCR; type: cell-based; conditions: MDA-MB-231 cells, endogenous gene
Protocol: as §1, §2

POLDIP3 exon 3 = POLDIP3 exon 3 splicing, RT-PCR; type: cell-based; conditions: MDA-MB-231 cells
Protocol: as §1, §2

CFTR [1] = test: CFTR protein levels, Western blot in U-87 MG cells; type: cell-based
Protocol: Additional experiments were performed to determine how ALT-59 treatment affects CFTR protein levels. U-87 MG cells were maintained at 37° C. in a CO2 incubator in Dulbecco's Modified Eagle's Medium (DMEM) supplemented with 10% fetal bovine serum (FBS) and 1% of penicillin/streptomycin (Invitrogen), and were treated with DMSO, 3 μM, or 6 μM ALT-59. Cells were lysed using RIPA buffer (25 mM Tris, pH 7.4, 150 mM NaCl, 0.1% SDS, 0.5% sodium deoxycholate, 1% Triton X-100, Complete protease inhibitor cocktail). Western blotting was performed using anti-CFTR (Novus Biologicals) and anti-beta-actin (Sigma-Aldrich) antibodies. Images were obtained using Odyssey imager and quantified using the Odyssey software (LI-COR).

CFTR [2] = test: CFTR localization, immunofluorescence microscopy, MDA-MB-231 cells; type: cell-based; conditions: 4 μM, 3 days
Protocol: (§3) MDA-MB-231 and U-87 MG cells were cultured on cover slips under the conditions as described above. Cells were treated with DMSO or 4 μM ALT-59 for 3 days. Primary human bronchial epithelial cells isolated from cystic fibrosis patient homozygous for Phe508del-CFTR (Lifeline Cell Technology) were cultured on cover slips in BronchiaLife Cell Culture Medium supplemented with BrochiaLife LifeFactors Kit (Lifeline Cell Technology) and maintained at 37° C. in a CO2 incubator. Cells were treated with DMSO, 4 μM ALT-59, 2 μM ALT-308, or 4 μM ALT-410 for 3 days.
(§4) Cells were fixed in 4% paraformaldehyde for 15 minutes and permeabilized in 0.1% Triton X-100 for 2 minutes. After being blocked in 5% BSA (Sigma-Aldrich), cells were incubated with anti-CFTR antibody (Alomone Labs) followed by Alexa Fluor 488 anti-rabbit secondary antibody. Reagents were buffered in GIBCO PBS (Phosphate-Buffered Saline). Images were taken using Carl Zeiss LSM 510 Laser Scanning Microscope. Parameters were set identical for all images.

CFTR [3] = test: CFTR localization, immunofluorescence microscopy, U-87 MG cells; type: cell-based; conditions: 4 μM, 3 days
Protocol: as §3, §4

Phe508del-CFTR = Phe508del-CFTR localization, immunofluorescence microscopy, primary bronchial epithelial cells of a cystic fibrosis patient; type: cell-based, human; conditions: primary bronchial epithelial cells homozygous for Phe508del-CFTR, 4 μM, 3 days
Protocol: as §3, §4

Beta-secretase 1 (BACE1) = test: BACE1 protein level, Western blot in U-87 MG cells; type: cell-based; conditions: 2 days
Protocol: (§5) U-87 MG and T98G cells were maintained at 37° C. in a CO2 incubator in Dulbecco's Modified Eagle's Medium (DMEM) supplemented with 10% fetal bovine serum (FBS) and 1% of penicillin/streptomycin (Invitrogen). Cells were treated with DMSO, 3 μM, or 6 μM ALT-59 for 2 days and subjected to Western blotting analysis using the indicated antibodies. Protein bands were quantified using the ImageJ software.

Tau = Tau expression, Western blot in U-87 MG cells; type: cell-based; conditions: 2 days
Protocol: as §5

MAP2 = MAP2 expression, Western blot in U-87 MG cells; type: cell-based; conditions: 2 days
Protocol: as §5

BACE1 = BACE1 expression, Western blot in T98G cells; type: cell-based; conditions: 2 days
Protocol: as §5

[4] = system: transgenic C. elegans expressing full-length (wild-type) human TDP-43; test: Paralysis caused by hTDP-43 expression in C. elegans; type: in vivo; conditions: 10 μM ALT-59 in NGM plates
Protocol: Wild-type N2 strain or transgenic C. elegans expressing full-length (wild-type) human TDP-43 (strain number, CL6049, Caenorhabditis Genetics Center, Minneapolis, Minn.) were placed on freshly prepared Nematode Growth Medium (NGM) petri plates with or without 10 μM ALT-59.
Uncoordinated phenotypes were imaged, and movement deficits were quantified by counting body thrashes in liquid after recording under an inverted microscope.

Compound: CN(C)c1ccc(C2Nc3ccc4ccccc4c3C3=C2C(=O)CC(C)(C)C3)cc1Br (stereo not drawn) [ALT-59, 5-(3-bromo-4-(dimethylamino)phenyl)-2,2-dimethyl-2,3,5,6-tetrahydrobenzo[a]phenanthridin-4(1H)-one]
- TDP43-His protein expression (TDP43-His): increased protein expression
- level of LAMP2a mRNA (LAMP2 pre-mRNA): reduces the level of LAMP2a mRNA
- level of LAMP2c mRNA (LAMP2 pre-mRNA): increases the level of LAMP2c mRNA
- CFTR exon 9 inclusion (CFTR exon 9): capable of promoting CFTR exon 9 inclusion
- ApoA2 splicing (ApoA2 pre-mRNA): blocking ApoA2 splicing
- splicing of POLDIP3 exon 3 (POLDIP3 exon 3): remain unchanged
- increase of CFTR300 level (CFTR [1]; 3 μM): 10 fold
- level of CFTR160 (CFTR [1]; 3 μM): did not affect
- increase of CFTR160 level (CFTR [1]; 6 μM): 30%
- increase of CFTR240 level (CFTR [1]; 6 μM): 3 fold
- increase of CFTR300 level (CFTR [1]; 6 μM): 18 fold
- CFTR localization (CFTR [2]): redistribution of CFTR from the perinuclear region to the plasma membrane
- CFTR localization (CFTR [3]): redistribution of CFTR from the perinuclear region to the plasma membrane
- localization of Phe508del-CFTR on the plasma membrane (Phe508del-CFTR): increased localization of Phe508del-CFTR on the plasma membrane
- reduction of BACE1 protein level (Beta-secretase 1 (BACE1); 3 μM): 20%
- reduction of BACE1 protein level (Beta-secretase 1 (BACE1); 6 μM): 50%
- reduction of Tau expression (Tau; 3 μM): 52%
- reduction of Tau expression (Tau; 6 μM): 38%
- increase of MAP2 expression (MAP2; 3 μM): 1.42 folds
- increase of MAP2 expression (MAP2; 6 μM): 2.51 folds
- reduction of BACE1 expression (BACE1; 3 μM): 31%
- reduction of BACE1 expression (BACE1; 6 μM): 53%
- coiled body posture and uncoordinated phenotype [4]: rescued the coiled body posture and uncoordinated phenotype
- percentage of paralysis ([4]; without treatment 93%): 29.5%
